From patent US7335495B2, “Process for the isolation of pharmaceutical compound cyclosporin a from fungus fusarium nivale” (Council of Scientific and Industrial Research, priority 2002, dated 2008) come the findings set out here.

One test concerns T. violaceum. In words: MIC by disk diffusion method, T. violaceum. It counts as cell-based, Trichophyton violaceum. The note with it: disks of 50, 25, 12.5, 6.25 and 3.12 μg, 42-120 hrs at room temperature. The text has this: (§1) Czapek Malt Agar (Himedia laboratories Ltd.) was used for culturing Tricholphytos mentagrophytes T. tonsurans, T. violaceum, Aspergillus fresnil and A niger, A. japonicus. Mucological Agar (Himedia Laboratories Ltd was used for Cryptocaccus neoformans and Candida sp.
(§2) Pathogeiic fungal strains of yeast and filamentous fungi (Identified and gifted by Dr. Savio from Goa Medical College, Bamoblim) were used for the test. Strains of Aspergillus were isolated from the infected wheat bread with sterile needles; fungal material was surface sterilized using 0.5% sodium hypochlorite for 2-3 minutes and then washed with small brush in sterile distilled water. This Aspergillus species was described earlier as food spoilage (Bhosale et. Al., 1999). […]
(§3) Innocula were adjusted to 50 μl of Cryptococcus neoformans, Candida sp., Trichophyrou tonsurans, T. violaceum and T. mentagrophytes, Aspergillus fresenil, A. niger, A. japonicus and spread on the appropriate plates, excess moisture was allowed to be absorbed for 10 minutes before applying on disks. […] Test plates were incubated for 42-120 hrs. at room temperature to obtain maximum growth and MIC was determined as lowest concentration of compound and antifungal agents resulting in a cleas zone of growth inhibition. […]
For orientation: A growth-free zone around the sample is the usual read-out of agar diffusion tests.

For test [1], the system named is Trichophyton mentagrophytes. In words: MIC by disk diffusion method, Trichophyton mentagrophytes. The note with it: disks of 50, 25, 12.5, 6.25 and 3.12 μg, 42-120 hrs at room temperature. Format: cell-based.
Excerpt: as §1, §2, §3

The subject of the next test is Fusarium sp. Kind of test: MIC by disk diffusion method, Fusarium sp. Format: cell-based. The note with it: disks of 50, 25, 12.5, 6.25 and 3.12 μg, 42-120 hrs at room temperature.
For another test, the system named is Aspergillus fresenii. In words: MIC by disk diffusion method, Aspergillus fresenii. It counts as cell-based. As to conditions: disks of 50, 25, 12.5, 6.25 and 3.12 μg, 42-120 hrs at room temperature.
Excerpt: as §1, §2, §3

In another test the test system is Candida sp. Kind of test: MIC by disk diffusion method, Candida sp. Format: cell-based. As to conditions: disks of 50, 25, 12.5, 6.25 and 3.12 μg, 42-120 hrs at room temperature.
Excerpt: as §1, §2, §3

A further test has as its system T. tonsurans. In words: MIC by disk diffusion method, T. tonsurans. It counts as cell-based, Trichophyton tonsurans. The note with it: disks of 50, 25, 12.5, 6.25 and 3.12 μg, 42-120 hrs at room temperature.
Excerpt: as §1, §2, §3

For the next test, the system named is A. niger. In words: MIC by disk diffusion method, A. niger. Format: cell-based, Aspergillus niger. The note with it: disks of 50, 25, 12.5, 6.25 and 3.12 μg, 42-120 hrs at room temperature.
Excerpt: as §1, §2, §3

A further test relates to Cryptococcus neoformans. Kind of test: MIC by disk diffusion method, Cryptococcus neoformans. Format: cell-based. As to conditions: Cryoticiecus Neoformans; disks of 50, 25, 12.5, 6.25 and 3.12 μg; 42-120 hrs at room temperature.
Excerpt: as §1, §2, §3

In a further test the test system is A. japonicus. Kind of test: MIC by disk diffusion method, A. japonicus. It counts as cell-based, Aspergillus japonicus. As to conditions: disks of 50, 25, 12.5, 6.25 and 3.12 μg, 42-120 hrs at room temperature.
Excerpt: as §1, §2, §3

With `C[C@@H]1[C@H](O)[C@@H](C)/C=C/C=C/C=C/C=C/C=C/C=C/C=C/[C@H](O[C@@H]2O[C@H](C)[C@@H](O)[C@H](N)[C@@H]2O)C[C@@H]2O[C@](O)(C[C@@H](O)C[C@@H](O)[C@H](O)CC[C@@H](O)C[C@@H](O)CC(=O)O[C@H]1C)C[C@H](O)[C@H]2C(=O)O` [Amphotericin B], the “MIC, Disk Diffusion Method” value was 6.25-12.5 μg/disc^−1 in the test on T. violaceum; 3.12-6.25 μg/disc^−1 in test [1]; 12.5-25 μg/disc^−1 with Fusarium sp.; 6.25-12.5 μg/disc^−1 against Aspergillus fresenii; 3.12-6.25 μg/disc^−1 in the test with Candida sp.; 6.25-12.5 μg/disc^−1 in the test with T. tonsurans. For the same molecule, the “MIC, Disk Diffusion Method” value is 6.25-12.5 μg/disc^−1 in the test on A. niger, 3.12-6.25 μg/disc^−1 in the test on Cryptococcus neoformans and 6.25-12.5 μg/disc^−1 in the test with A. japonicus.
Take `C[C@@H]1[C@H](O)[C@@H](C)/C=C/C=C/CC/C=C/C=C/C=C/C=C/C(O[C@H]2O[C@H](C)[C@@H](O)[C@H](N)[C@@H]2O)CC2O[C@](O)(CC(O)C(O)CCC(O)CC(O)CC(O)CC(=O)O[C@H]1C)CC(O)C2C(=O)O` (some centres unmarked) [Nystatin]: the “MIC, Disk Diffusion Method” value in the test with Candida sp. and with Cryptococcus neoformans was 3.12-6.25 μg/disc^−1 in each case.
